Holding throughout (assay type): cell-based, Chinese Hamster
Experiment [1] relates to empty host CHO-K1 cells. Briefly: Growth of empty host CHO-K1 cells in seed train media with PDGFRa inhibitor and/or insulin. The text has this:
(§1) FIGS. 3A-3D. PDGFRa signaling is important for cell growth, e.g., CHO cell growth, and growth factor signaling is intact after PDGFRa inhibition. FIG. 3A is a schematic of PDGFRa and insulin receptor (IR) signaling upstream of protein synthesis, cell cycle progression and cell proliferation. Bolder arrows indicate stronger activation by respective receptors. FIG. 3B depicts empty CHO-K1 host cells VCC and % viability after 4 days in the presence or absence of PDGFRa inhibitor and/or insulin in the seed train media. FIG. 3C depicts western blot analysis of empty host CHO-K1 cells (of FIG. 3B) after 4 days in the presence or absence of PDGFRa inhibitor and/or insulin in the seed train media. FIG. 3D depicts Day 12 relative IVCC, % viability, relative titer and relative Qp of mAb2-expressing CHO-K 1 cells in the presence of PDGFRa inhibitor and/or insulin during production.
FIGS. 4A-4D. FIG. 4A depicts empty host CHO-K1 cells viable cell count (VCC) and % viability after 4 days in increasing PDGFRa inhibitor concentrations in the seed train media. FIG. 4B depicts western blot analysis of empty host CHO-K1 cells after 4 days in increasing PDGFRa inhibitor concentrations in the seed train media. FIG. 4C depicts western blot analysis mAb2-expressing CHO-K 1 cells in production in the presence or absence of PERK inhibitor at 10 μM concentration. […]

Experiment [2] has as its system mAb2-expressing CHO-K1 cells. Briefly: Fed-batch production of mAb2-expressing CHO cell line with PDGFRa inhibitor and/or insulin.
Excerpt: as §1
Fed-batch production cultures were performed with proprietary chemically defined medium using different vessels (tube-spin and AMBR15) along with bolus feeds on Days 3, 7 and 10 as previously mentioned (Hsu, Aulakh, Traul, & Yuk, 2012). […] Titers were determined using Protein-A affinity chromatography with UV detection. Percent viability and viable cell count were determined using a Vi-Cell XR instrument (Beckman Coulter Item #383721). […]

Experiment [3] deals with PDGFRa. Briefly: Chemical UPR induction in CHO cultures, PDGFRa western blot and qPCR. The following applies: mAb1-expressing CHO DG44 and CHO-K1 seed train cultures; optimal pH. The text has this:
FIGS. 1A-1G. […] FIG. 1C depicts western blot analysis of two mAb1-expressing host cell lines, CHO DG44 and CHO-K1, treated with chemical UPR inducers: tunicamycin and DTT. FIG. 1D depicts qPCR analysis of PDGFRa mRNA levels in both host cell lines of FIG. 1C treated with tunicamycin and DTT. FIG. 1E depicts western blot analysis of mAb1-expressing CHO-K1 cells treated with tunicamycin to activate the UPR in the presence of UPR pathway-specific inhibitors. […] FIG. 1F depicts qPCR analysis of PDGFRa mRNA levels in CHO-K1 cells treated with tunicamycin in the presence of UPR pathway-specific inhibitors. FIG. 1G depicts western blot analysis of WT and PERK KO empty host CHO-K1 (Clone 9) cell lines treated with tunicamycin and PERK inhibitor.
FIGS. 2A-2E. FIG. 2A depicts western blot analysis of mAb1-expressing CHO-K1 cells treated with thapsigargin to activate the UPR in the presence of different UPR pathway-specific inhibitors. […]
An interesting phenomenon was previously described where activation of UPR in seed train culture, triggered by lower pH conditions in a particular CHO cell line, negatively affected culture growth in production media at target pH (Tung, et al., 2018). When exposed to low pH conditions, high intracellular BiP levels were detected in this cell line that correlated to low growth profiles during production and poor bioprocess outcomes (Tung, et al., 2018). […]
A general note: Immunoblotting shows a protein as a band on a membrane.

Take `COc1cc2ncc(-c3ccccc3)nc2cc1OC` [PDGFRa inhibitor, AG-1296]: in experiment [1] (20 μM, 4 days), the “reduction of cell growth” value is recorded as “approximately 50%”. The “cell growth and cell viability in fed-batch production” value in experiment [2] (PDGFRa inhibition on Day 3) is given as “significantly decreased cell growth, without affecting cell viability”.

Regarding Tunicamycin, the “fully functional PDGFRa levels (protein and mRNA)” value in experiment [3] is “reduced at both the protein and mRNA levels”.

For insulin, the “cellular growth of cultures treated with the PDGFRa inhibitor after addition of insulin” value in experiment [1] is “partially rescued cellular growth”. Moreover, in experiment [2] (insulin on Day 3, PDGFRa inhibited), the “cell growth inhibition in production culture after addition of insulin” value is reported as “partially rescued the observed cell growth inhibition”.

The values are drawn from patent US20240190944A1, “MODIFIED CELLS FOR THE PRODUCTION OF A RECOMBINANT PRODUCT OF INTEREST” (Genentech, Inc., priority 2021, published 2024).
